Assay results as given in article PMC9841589, “Identification of 2-Aminoacyl-1,3,4-thiadiazoles as Prostaglandin E2 and Leukotriene Biosynthesis Inhibitors” (ACS Medicinal Chemistry Letters, 2022).
Where two headings read alike, the source gives them in different places.

Assays:
[1] = target: T1, COX-1 (Ovis aries, UniProt P05979); assay: Cell-free COXs activity assay, COX-1; assay type: biochemical, ovine; details: percentage of uninhibited control (100%), n = 3, n.i.: no inhibitory activity observed, read-out: COX-1 residual activity (%)
T1 sequence (P05979 25-600): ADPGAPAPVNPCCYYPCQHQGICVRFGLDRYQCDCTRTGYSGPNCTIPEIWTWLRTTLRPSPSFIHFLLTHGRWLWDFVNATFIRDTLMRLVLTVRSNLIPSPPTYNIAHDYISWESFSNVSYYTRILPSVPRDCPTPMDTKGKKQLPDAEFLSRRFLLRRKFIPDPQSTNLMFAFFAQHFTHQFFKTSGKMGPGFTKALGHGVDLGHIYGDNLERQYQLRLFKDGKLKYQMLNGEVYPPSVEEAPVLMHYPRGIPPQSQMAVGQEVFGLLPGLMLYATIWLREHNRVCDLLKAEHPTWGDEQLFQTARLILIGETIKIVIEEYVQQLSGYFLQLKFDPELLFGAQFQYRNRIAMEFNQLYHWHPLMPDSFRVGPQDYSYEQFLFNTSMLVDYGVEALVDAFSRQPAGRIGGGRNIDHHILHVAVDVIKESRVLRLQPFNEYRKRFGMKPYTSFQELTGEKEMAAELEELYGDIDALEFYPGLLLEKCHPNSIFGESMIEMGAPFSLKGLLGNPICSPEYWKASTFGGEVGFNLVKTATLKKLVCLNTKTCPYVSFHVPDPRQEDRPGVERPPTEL
Description: Cell-free COXs activity assay
Isolated COX-1 (ovine) and COX-2 (human) were used for the evaluation of the activity of test compounds 3, 6, 7, and 9 on cyclooxygenases. COXs were diluted using Tris buffer (100 mM, pH = […]
8) plus 5 mM glutathione, 100 µM EDTA and 5 µM hemoglobin) to a final concentration of 50 U/mL for COX-1 and 20 U/mL for COX-2, and pre-incubated with test compounds 3, 6, 7, and 9 (10 µM) or vehicle (0.1% DMSO) over 5 min at rt. After 1 min at 37 °C, reactions were started after addition of arachidonic acid to a final concentration of 5 µM for COX-1 and 2 µM for COX-2. After 5 min at 37 °C, 1 mL of ice-cold methanol was added for stopping the reactions on ice. Then, PGB 1 as internal standard and 530 µl PBS plus HCl were added, and solid-phase extraction was performed as reported before.4-6, 17-19 COXs product formation (12-HHT) was determined using RP-HPLC. 4-6, 17-19 Indomethacin (10 µM) and celecoxib (5 µM) were used as reference drugs.
Expression, purification and activity assay of human recombinant sEH
Human recombinant sEH was expressed in Sf9 cells and was infected using a baculovirus, provided by Dr. B. Hammock, University of California, Davis, CA. After 72 hours, cells were pelleted and sonicated (3 × 10 sec) at 4 °C in lysis buffer (50 mM NaHPO 4, pH = 8, 300 mM NaCl, 10% glycerol, 1 mM EDTA, 1 mM phenylmethanesulfonyl fluoride, 10 µg/mL of leupeptin, and 60 µg/mL of soybean trypsin inhibitor). Lysates were centrifuged over 60 min at 4 °C (100,000 × g), and supernatants were collected and submitted to a benzylthio-sepharose-affinity chromatography for sEH purification by elution with 4-fluorochalcone oxide in PBS plus 1 mM DTT and 1 mM EDTA.720 […]
DMSO) for 15 min at rt. 50 µM 3-phenyl-cyano(6-methoxy-2-naphthalenyl)methyl ester-2-oxiraneacetic acid (PHOME), a non-fluorescent compound, was added for starting the reaction.
PHOME is enzymatically converted into a fluorescent compound, 6-methoxy-naphtaldehyde, detectable by using a spectrofluorometer setting λ em = 465 nm, λ ex = 330 nm. After 60 min, ZnSO 4

[2] = system: 5-LO product formation in intact neutrophils (PMNL); assay: Determination of 5-LO products in neutrophils; assay type: cell-based; details: Homo sapiens
Description: Figure S3. Concentration-response curves for inhibition of 5-LO product formation in neutrophils.
Cells were pre-incubated with compounds 3, 6, 7 and 9 or 0.1% DMSO over 10 min at 37 °C, and then stimuli were added. On the left (A,C, E, G), cells were stimulated with 2.5 µM Ca 2+-ionophore A23187 over 10 min; on the right (B, D, F, H), cells were stimulated with 2.5 µM Ca 2+-ionophore A23187 plus 20 µM arachidonic acid over 10 min. Data are expressed as percentage of uninhibited control (100%), means, S.E.M., n = 3. […]
Determination of 5-LO products in neutrophils
Freshly isolated neutrophils were resuspended in PBS buffer containing 0.1% glucose and 1 mM CaCl2 to a final cell density of 5 × 10 6. Cells were pre-incubated with compounds 3, 6, 7, 9 or DMSO vehicle (0.1%) at 37 °C for 10 min. Then, 2.5 µM Ca 2+-ionophore A23187 (with or without supplementation of 20 µM of arachidonic acid) was added as stimulus, and cells were left at 37 °C for 10 min. 1 mL of ice-cold methanol was used to stop the reaction of 5-LO product formation on ice, and 530 µL of PBS plus HCl and PGB 1 (as internal standard) were added. Finally, cells were centrifuged (2000 x g) over 10 min at room temperature, and 5-LO products were extracted by solid-phase extraction, and they were quantified by RP-HPLC as described above. […]

[3] = 2.5 µM A23187, n = 3, read-out: 5-LO product formation on PMNL, IC50 value ± SEM, stimulus: A23187
[4] = 2.5 µM A23187 plus 20 μM arachidonic acid, n = 3, read-out: 5-LO product formation on PMNL, IC50 value ± SEM, stimulus: A23187 + AA

remaining activity at 10 µM [1] [%]	IC50 [2, 3] [µM]	IC50 [2, 4] [µM]	SMILES
107	2.1 ± 0.3	4.2 ± 0.3	Nc1ccccc1-c1ccc(-c2nnc(NC(=O)c3c(Cl)ccnc3Cl)s2)cc1 [compound 9]
82.3	4.8 ± 1.9	6.9 ± 2.2	Cc1cc(C(=O)Nc2nnc(-c3ccc(-c4ccccc4N)cc3)s2)cc(Cl)n1 [compound 6]
98.1	4.2 ± 1.4	2.3 ± 0.8	Nc1ccccc1-c1ccc(-c2nnc(NC(=O)c3ccccc3Br)s2)cc1 [compound 7]
104	4.9 ± 0.5	5.2 ± 1.2	O=C(Nc1nnc(-c2ccc(-c3cccc(O)c3)cc2)s1)c1ccccc1Br [compound 3]
